Consider 19 compounds from patent US7109243B2 (IRM LLC, priority 2003, dated 2006).

One assay addresses T1, Cathepsin K (Homo sapiens, UniProt P43235).
T1 sequence (P43235 115-329): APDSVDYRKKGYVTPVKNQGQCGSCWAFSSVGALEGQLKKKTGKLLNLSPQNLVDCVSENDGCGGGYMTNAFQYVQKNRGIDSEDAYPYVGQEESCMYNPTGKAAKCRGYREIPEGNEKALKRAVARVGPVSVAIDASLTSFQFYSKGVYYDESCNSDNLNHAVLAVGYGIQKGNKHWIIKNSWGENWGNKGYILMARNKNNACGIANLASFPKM
As to the kind of experiment: Cathepsin K inhibition assay (fluorogenic peptide substrate); selectivity ratio vs cathepsin S. The class given is biochemical. The settings on record: ratio of cathepsin K inhibition constant to cathepsin S inhibition constant; Table II. In short, it runs like this: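 Fluorogenic kinetic assay, started with acetyl-Lys-His-Pro-Lys-aminocarbamoylcoumarin at 40 μM final, hydrolysis followed at ex 380/em 450 nm. Apparent inhibition constants from progress curves, converted to competitive inhibition constants. Selectivity expressed as isozyme inhibition constant divided by cathepsin S inhibition constant.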

For the next assay, the target named is Cathepsin S (Homo sapiens, UniProt P25774). As to the kind of experiment: Cathepsin S inhibition assay (fluorogenic peptide substrate). In kind it is biochemical. The settings on record: Table II, compounds of Formula I; read-out: Ki Cat. S. In short, it runs like this: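 Ki values come from nonlinear fitting of inhibited hydrolysis rates, taking free and total inhibitor concentrations as equal. Rates measured as rising fluorescence at 380/450 nm after reaction start with 50 μM final acetyl-HPVK-aminocarbamoylcoumarin.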
Sequence of Cathepsin S (P25774 115-331, species assumed): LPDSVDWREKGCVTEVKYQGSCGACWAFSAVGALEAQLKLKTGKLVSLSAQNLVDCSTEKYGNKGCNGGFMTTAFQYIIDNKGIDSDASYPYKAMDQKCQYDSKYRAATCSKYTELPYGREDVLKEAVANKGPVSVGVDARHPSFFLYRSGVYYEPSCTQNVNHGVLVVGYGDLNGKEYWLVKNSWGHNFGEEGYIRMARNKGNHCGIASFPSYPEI

One may read the Ki as the equilibrium dissociation constant of an inhibitor or competing ligand from its target.

On to `C[C@@H](C(=O)N[C@@H](CC1CCCCC1)C(=O)NCCNc1ccc(F)cc1)c1ccccc1` [Compound 315, N-{2-cyclohexyl-1-(S)-[2-(4-fluoro-phenylamino)-ethylcarbamoyl]-ethyl}-2-(R)-phenyl-propionamide], for which the “Selectivity for Cat. S over Cat. K” value at Cathepsin K is reported as “++ (++, >100)”. Further, the Ki on Cathepsin S was less than 100 nM.
Take `O=C(N[C@@H](CC1CCCCC1)C(=O)NCCNc1ccc(OC(F)(F)F)cc1)c1ccc(-c2ccc(C(F)(F)F)cc2)s1` [Compound 205, (S)-5-(4-Trifluoromethyl-phenyl)-thiophene-2-carboxylic acid {2-cyclohexyl-1-[2-(4-trifluoromethoxy-phenylamino)-ethylcarbamoyl]-ethyl}-amide]: the “Selectivity for Cat. S over Cat. K” value at Cathepsin K is “++ (++, >100)”. Also, the Ki at Cathepsin S is less than 100 nM.
As for `COc1ccc(NCCNC(=O)C(NC(=O)c2cccc(C)c2)c2ccc(Cl)cc2)cc1` (racemic) [Compound 8, (±)-N-((2-(4-methoxyphenylamino)ethylcarbamoyl)(4-chlorophenyl)methyl)-3-methylbenzamide], the “Selectivity for Cat. S over Cat. K” value on Cathepsin K is given as “+++ (+++, >1000)”. Moreover, the Ki at Cathepsin S is less than 100 nM.
As to `O=C(Cc1ccc(OC(F)(F)F)cc1)N[C@@H](CC1CCCCC1)C(=O)NCCNc1ccc(F)cc1` [Compound 87, 3-Cyclohexyl-N-(S)-[2-(4-fluoro-phenylamino)-ethyl]-2-[2-(4-trifluoromethoxy-phenyl)-acetylamino]-propionamide], the “Selectivity for Cat. S over Cat. K” value on Cathepsin K is recorded as “++ (++, >100)”. On Cathepsin S, the Ki was less than 100 nM.
As to `N#Cc1cccc(C(=O)N[C@@H](CC2CCCCC2)C(=O)NCCNc2ccc(F)cc2)c1` [Compound 324, 3-Cyano-N-(S)-{2-cyclohexyl-1-[2-(4-fluoro-phenylamino)-ethylcarbamoyl]-ethyl}-benzamide], the “Selectivity for Cat. S over Cat. K” value at Cathepsin K was “++ (++, >100)”. Moreover, the Ki on Cathepsin S is less than 100 nM.
With `COc1ccc(NCCNC(=O)[C@H](Cc2ccc(-c3ccccc3C(C)=O)cc2)NC(=O)c2cccc(C)c2)cc1` [Compound 288, (S)-N-{2-(2′-Acetyl-biphenyl-4-yl)-1-[2-(4-methoxy-phenylamino)-ethylcarbamoyl]-ethyl}-3-methyl-benzamide], the “Selectivity for Cat. S over Cat. K” value on Cathepsin K was “++ (++, >100)”. On Cathepsin S, the inhibition constant Ki is less than 1000 nM.
As to `COc1ccc(NCCNC(=O)[C@H](Cc2ccccc2)NC(=O)c2cnn(-c3ccccc3)c2C(F)(F)F)cc1` [Compound 41, (S)-1-Phenyl-5-trifluoromethyl-1H-pyrazole-4-carboxylic acid {1-[2-(4-methoxy-phenylamino)-ethylcarbamoyl]-2-phenyl-ethyl}-amide], the “Selectivity for Cat. S over Cat. K” value on Cathepsin K is recorded as “++ (++, >100)”. The Ki on Cathepsin S was less than 1000 nM.
For `COc1ccc(NCCNC(=O)[C@H](Cc2ccccc2)NC(=O)Nc2cccc(OC)c2)cc1` [Compound 104, (S)-N-[2-(4-Methoxy-phenylamino)-ethyl]-2-[3-(3-methoxy-phenyl)-ureido]-3-phenyl-propionamide], the “Selectivity for Cat. S over Cat. K” value at Cathepsin K is “+ (+, >10)”. In addition, the inhibition constant Ki on Cathepsin S is less than 10000 nM.
As for `COc1ccc(NCCNC(=O)[C@H](CC2CCCC2)NC(=O)c2ccc(-c3cccc(C(F)(F)F)c3)o2)cc1` [Compound 6, N-((S)-1-(2-(4-methoxyphenylamino)ethylcarbamoyl)-2-cyclopentylethyl)-5-(3-(trifluoromethyl)phenyl)furan-2-carboxamide], at Cathepsin K, the “Selectivity for Cat. S over Cat. K” value is listed as “++ (++, >100)”. The inhibition constant Ki at Cathepsin S was less than 100 nM.
Turning to `O=C(N[C@@H](CC1CCCCC1)C(=O)NCCNc1ccc(OC(F)(F)F)cc1)c1ccc(-c2ccccc2)cc1` [Compound 234, (S)-Biphenyl-4-carboxylic acid {2-cyclohexyl-1-[2-(4-trifluoromethoxy-phenylamino)-ethylcarbamoyl]-ethyl}-amide], the “Selectivity for Cat. S over Cat. K” value on Cathepsin K is recorded as “+ (+, >10)”. Also, on Cathepsin S, the Ki is less than 100 nM.
With `COc1ccc(NCCNC(=O)[C@H](Cc2ccc(-c3ccc(C#N)cc3)cc2)NC(=O)c2cccc(C)c2)cc1` [Compound 276, (S)-N-{2-(4′-Cyano-biphenyl-4-yl)-1-[2-(4-methoxy-phenylamino)-ethylcarbamoyl]-ethyl}-3-methyl-benzamide], the “Selectivity for Cat. S over Cat. K” value on Cathepsin K is given as “+++ (+++, >1000)”. Further, at Cathepsin S, the Ki was less than 100 nM.
Regarding `COc1ccc(NCCNC(=O)[C@H](CC2CCCCC2)NC(=O)c2ccc(-c3ccc4c(c3)OCO4)cc2)cc1` [Compound 176, (S)-4-Benzo[1,3]dioxol-5-yl-N-{2-cyclohexyl-1-[2-(4phenylamino)-ethylcarbamoyl]-ethyl}-benzamide], on Cathepsin K, the “Selectivity for Cat. S over Cat. K” value is recorded as “+++ (+++, >1000)”. The Ki on Cathepsin S was less than 100 nM.
For `COc1ccc(NCCNC(=O)[C@H](CC2CCCCC2)NC(=O)c2sc(-c3ccc(C(F)(F)F)cc3)nc2C)cc1` [Compound 188, (S)-4-Methyl-2-(4-trifluoromethyl-phenyl)-thiazole-5-carboxylic acid {2-cyclohexyl-1-[2-(4-methoxy-phenylamino)-ethylcarbamoyl]-ethyl}-amide], the “Selectivity for Cat. S over Cat. K” value at Cathepsin K is reported as “+++ (+++, >1000)”. Moreover, the Ki on Cathepsin S was less than 100 nM.
In the case of `Cc1ccc(-c2ccc(C(=O)N[C@@H](CC3CCCCC3)C(=O)NCCNc3ccc(OC(F)(F)F)cc3)s2)cc1` [Compound 42, 5-p-Tolyl-thiophene-2-carboxylic acid (S)-{2-cyclohexyl-1-[2-(4-trifluoromethoxy-phenylamino)-ethylcarbamoyl]-ethyl}-amide], the “Selectivity for Cat. S over Cat. K” value at Cathepsin K is listed as “+ (+, >10)”. For the same compound, on Cathepsin S, the Ki is less than 1000 nM.
Consider `Cc1cc(C)nc(N2CCC(C(=O)N[C@@H](CC3CCCCC3)C(=O)NCCNc3ccc(OC(F)(F)F)cc3)CC2)n1` [Compound 72, 1-(4,6-Dimethyl-pyrimidin-2-yl)-piperidine-4-carboxylic acid (S)-{2-cyclohexyl-1-[2-(4-trifluoromethoxy-phenylamino)-ethylcarbamoyl]-ethyl}-amide], for which the “Selectivity for Cat. S over Cat. K” value on Cathepsin K is reported as “++ (++, >100)”. Besides, the inhibitory constant (Ki) on Cathepsin S was less than 10000 nM.
Regarding `COc1ccc(NCCNC(=O)[C@H](CC2CCCCC2)NC(=O)c2c[nH]c3ccccc23)cc1` [Compound 185, (S)-1H-Indole-3-carboxylic acid {2-cyclohexyl-1-[2-(4-methoxy-phenylamino)-ethylcarbamoyl]-ethyl}-amide], the “Selectivity for Cat. S over Cat. K” value on Cathepsin K is on record as “++ (++, >100)”. Further, the Ki at Cathepsin S was less than 100 nM.
`O=C(Cc1cc(F)cc(F)c1)N[C@@H](CC1CCCCC1)C(=O)NCCNc1ccc(F)cc1` [Compound 125, 3-Cyclohexyl-2-(S)-[2-(3,5-difluoro-phenyl)-acetylamino]-N-[2-(4-fluoro-phenylamino)-ethyl]-propionamide]: the “Selectivity for Cat. S over Cat. K” value on Cathepsin K was “++ (++, >100)”. Also, the inhibition constant Ki at Cathepsin S is less than 100 nM.
As to `COc1ccc(NCCNC(=O)[C@H](Cc2ccccc2C(F)(F)F)NC(=O)c2cccc(C)c2)cc1` [Compound 239, (S)-N-[1-[2-(4-Methoxy-phenylamino)-ethylcarbamoyl]-2-(2-trifluoromethyl-phenyl)-ethyl]-3-methyl-benzamide], on Cathepsin K, the “Selectivity for Cat. S over Cat. K” value is recorded as “+++ (+++, >1000)”. In addition, the Ki on Cathepsin S is less than 100 nM.
With `C[C@@H](C(=O)N[C@@H](CC1CCCCC1)C(=O)NCCNc1ccc(OC(F)(F)F)cc1)c1ccccc1` [Compound 122, N-{2-cyclohexyl-1-(S)-[2-(4-trifluoromethoxy-phenylamino)-ethylcarbamoyl]-ethyl}-2-(R)-phenyl-propionamide], the “Selectivity for Cat. S over Cat. K” value on Cathepsin K is recorded as “+++ (+++, >1000)”. The Ki at Cathepsin S was less than 100 nM.
